Laboratory results from patent US9023789B2, “Amylin analogs and pharmaceutical compositions thereof” (Novo Nordisk A/S, priority 2012, dated 2015).
Converted amounts (≈) assume the structure as drawn. Like-named read-outs stand apart in the source and are kept apart here. Numbered stars: 1 amine (or outer) side, 2 acyl side, 3 side chain; on linkers, the order of the positions; unused ones are H or OH. Bridge positions count the residues as written; N and C are the ends. Side chains are listed from the residue outwards. Peptide text beside a SMILES is read from it. * marks the point of attachment. C20 diacid = O=C(O)CCCCCCCCCCCCCCCCCCC(=O)*; γGlu = O=C(O)[C@H](CCC(=O)[*:2])N[*:1]

Assays:
[1] = target: T1, human amylin 3(a) receptor (human calcitonin receptor + RAMP-3) in BHK570 cells (Homo sapiens, UniProt O60896+P30988); experiment: ASSAY (II)a functional assay, human amylin receptor (CRE luciferase); type: cell-based
T1 construct: expressed in transfected cells
In short: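 BHK CRE-luc cells, calcitonin (a) receptor ± RAMP-3 (amylin 3(a)); overnight seeding, 37° C/5% CO2. 3 h ligand exposure, DMEM/10% FBS/10 mM Hepes pH 7.4. LucLite 30 min RT; luminescence (SPC).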

[2] = target: T2, rat calcitonin receptor (Rattus norvegicus, UniProt P32214); experiment: ASSAY (VIII) binding to the rat calcitonin receptor; details: Table 7, read-out: rCTR bind IC50
T2 construct: expressed in transfected cells; host or cells: BHK tk'ts 13 (transient, FuGENE 6), membranes
T2 sequence (P32214 25-479 isoform P32214-2 limits assumed): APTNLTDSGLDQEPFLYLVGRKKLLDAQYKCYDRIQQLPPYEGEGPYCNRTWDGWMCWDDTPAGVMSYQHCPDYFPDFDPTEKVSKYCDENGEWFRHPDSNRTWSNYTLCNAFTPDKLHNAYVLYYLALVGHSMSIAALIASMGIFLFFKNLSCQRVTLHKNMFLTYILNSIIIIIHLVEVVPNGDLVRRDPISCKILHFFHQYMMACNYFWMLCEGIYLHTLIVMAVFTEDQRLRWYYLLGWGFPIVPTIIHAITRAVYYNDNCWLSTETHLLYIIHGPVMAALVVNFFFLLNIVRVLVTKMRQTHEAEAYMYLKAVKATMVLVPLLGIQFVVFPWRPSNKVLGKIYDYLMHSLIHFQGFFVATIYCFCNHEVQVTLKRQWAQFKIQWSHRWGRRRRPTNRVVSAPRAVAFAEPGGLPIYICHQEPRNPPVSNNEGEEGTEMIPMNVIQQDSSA
In short: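 Rat calcitonin receptor is expressed transiently in BHK tk′ts 13 cells cultured in DMEM with 10% FBS. Roughly two days (approximately 48 hours) post-transfection, cells are harvested for membrane preparation.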

[3] = target: T3, rat amylin receptor (rat calcitonin receptor + rat RAMP 3) (Rattus norvegicus, UniProt P32214+Q9JJ73); experiment: ASSAY (VI) binding to the rat amylin receptor; details: for IC50: binding to rat amylin receptor, read-out: rAmylin-R bind IC50
T3 construct: expressed in transfected cells; host or cells: BHK tk'ts 13 (transient, FuGENE 6), membranes
T3 sequence (P32214 25-479 isoform P32214-2 limits assumed): T2 sequence (P32214 25-479 isoform P32214-2 limits assumed)
T3 sequence (Q9JJ73 23-147 partner): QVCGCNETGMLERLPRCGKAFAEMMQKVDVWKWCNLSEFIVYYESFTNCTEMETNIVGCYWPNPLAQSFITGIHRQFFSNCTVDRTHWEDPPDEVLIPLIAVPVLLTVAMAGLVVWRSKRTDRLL
In short: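 This assay measured binding to the rat amylin receptor. BHK tk′ts 13 cells were transiently transfected with the rat calcitonin receptor using FuGENE® 6 (Roche), following the manufacturer's recommendations. About 48 hours after transfection, the cells were harvested and membranes were prepared from them for the binding determination.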

[4] = ASSAY (IV) determination of solubility; type: physicochemical
In short: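 Dissolve polypeptide in water ([…] stock); combine 1:1 with each 100 mM buffer (glycylglycine pH 3.0/4.0/5.0; bistrispropane pH 6.0/6.5/7.0/7.5/8.0); hold 18 hours at room temperature; centrifuge; quantify polypeptide by UPLC.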

[5] = hCTR funct. EC50 divided by hAmylin-R funct. EC50
[6] = hCTR funct. EC50 over hAmylin-R funct. EC50
[7] = human functional selectivity: hCTR funct. EC50 / hAmylin-R funct. EC50
[8] = Table 7, rat binding selectivity, rCTR IC50 / rAmylin-R IC50
[9] = Table 7a (preferred compounds), rat binding selectivity, rCTR IC50 / rAmylin-R IC50
[10] = ratio of rCTR bind IC50 to rAmylin-R bind IC50
[11] = bistrispropane buffer, pH 6.5, read-out: Solubility pH 6.5 Concentration
[12] = bistrispropane buffer, pH 7.5, read-out: Solubility pH 7.5 Concentration
[13] = bistrispropane buffer, pH 6.0, read-out: Solubility pH 6.0 Concentration
[14] = bistrispropane buffer, pH 7.0, read-out: Solubility pH 7.0 Concentration
[15] = bistrispropane buffer, pH 8.0, read-out: Solubility pH 8.0 Concentration
[16] = glycylglycine buffer, pH 3.0, read-out: Solubility pH 3.0 Concentration
[17] = glycylglycine buffer, pH 4.0, read-out: Solubility pH 4.0 Concentration
[18] = glycylglycine buffer, pH 5.0, read-out: Solubility pH 5.0 Concentration

T1 sequence (O60896 24-148): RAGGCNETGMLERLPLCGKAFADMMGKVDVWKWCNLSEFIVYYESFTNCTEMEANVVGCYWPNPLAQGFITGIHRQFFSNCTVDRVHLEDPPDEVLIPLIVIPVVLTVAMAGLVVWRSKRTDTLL
T1 sequence (P30988 25-474): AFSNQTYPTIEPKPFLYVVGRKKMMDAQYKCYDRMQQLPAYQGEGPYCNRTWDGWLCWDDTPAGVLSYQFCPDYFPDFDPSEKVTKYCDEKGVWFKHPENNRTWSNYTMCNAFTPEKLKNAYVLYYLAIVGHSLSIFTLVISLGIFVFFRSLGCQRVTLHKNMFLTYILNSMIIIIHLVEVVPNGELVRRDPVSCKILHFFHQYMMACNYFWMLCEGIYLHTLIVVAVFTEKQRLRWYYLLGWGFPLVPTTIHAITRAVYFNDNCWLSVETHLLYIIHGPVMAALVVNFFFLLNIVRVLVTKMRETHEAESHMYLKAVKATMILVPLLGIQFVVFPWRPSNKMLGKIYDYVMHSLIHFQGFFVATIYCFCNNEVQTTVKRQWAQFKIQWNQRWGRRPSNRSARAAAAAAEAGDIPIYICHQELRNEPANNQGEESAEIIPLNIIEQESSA

| Ratio hCT/hAmylin funct. [1, 5] | Ratio hCT/hAmylin funct. [1, 6] | Ratio hCT/hAmylin funct. [1, 7] | IC50 [2] | IC50 ([3]; Table 7) | Ratio rCT/rAmylin binding [3, 8] | Ratio rCT/rAmylin binding [3, 9] | Ratio rCT/rAmylin binding [3, 10] | solubility at 18 h [4, 11] | solubility at 18 h [4, 12] | solubility at 18 h [4, 13] | solubility at 18 h [4, 14] | solubility at 18 h [4, 15] | solubility at 18 h [4, 16] | solubility at 18 h [4, 17] | solubility at 18 h [4, 18] | EC50 ([1]; human amylin receptor functional potency, assay (II), read-out: hAmylin-R funct. EC50) | SMILES |
| --- | --- | --- | --- | --- | --- | --- | --- | --- | --- | --- | --- | --- | --- | --- | --- | --- | --- |
| 41.6 | 41.6 | 41.6 | 140 nM | 2.83 nM | 49.7 | 49.7 | 49.7 | ≥ 200 µM | ≥ 200 µM | ≥ 200 µM | ≥ 200 µM | ≥ 200 µM | ≥ 200 µM | ≥ 200 µM | ≥ 200 µM |  | CC[C@H](C)[C@H](NC(=O)[C@H](C)NC(=O)CNC(=O)[C@H](Cc1ccccc1)NC(=O)[C@H](CC(N)=O)NC(=O)[C@@H]1CCCN1C(=O)[C@H](CO)NC(=O)[C@H](CO)NC(=O)[C@H](Cc1c[nH]cn1)NC(=O)[C@H](CCCNC(=N)N)NC(=O)[C@H](CC(C)C)NC(=O)[C@H](Cc1ccccc1)NC(=O)[C@H](CCCNC(=N)N)NC(=O)[C@H](C)NC(=O)[C@H](CC(C)C)NC(=O)[C@H](CCCNC(=N)N)NC(=O)[C@H](CCC(N)=O)NC(=O)[C@@H](NC(=O)[C@H](C)NC(=O)[C@@H]1CSSC[C@H](NC(=O)[C@@H](N)CCCCNC(=O)CC[C@H](NC(=O)CCCCCCCCCCCCCCCCCCC(=O)O)C(=O)O)C(=O)N[C@@H](CC(N)=O)C(=O)N[C@@H]([C@@H](C)O)C(=O)N[C@@H](C)C(=O)N[C@@H]([C@@H](C)O)C(=O)N1)[C@@H](C)O)C(=O)N1CCC[C@H]1C(=O)N[C@@H](CO)C(=O)N[C@@H](CO)C(=O)N[C@H](C(=O)N[C@@H](CC(N)=O)C(=O)N[C@H](C(=O)NCC(=O)N[C@@H](CO)C(=O)N[C@@H](CC(N)=O)C(=O)N[C@H](C(=O)N[C@@H](Cc1ccc(O)cc1)C(N)=O)[C@@H](C)O)C(C)C)[C@@H](C)O [Example 83] |
| 10.2 | 10.2 | 10.2 | 46.8 nM | 0.33 nM | 141.8 | 141.8 | 141.8 | ≥ 200 µM | 106 µM (≈ 473 µg/mL) | ≥ 200 µM | 186 µM (≈ 831 µg/mL) | 145 µM (≈ 648 µg/mL) | ≥ 200 µM | ≥ 200 µM | ≥ 200 µM |  | CC[C@H](C)[C@H](NC(=O)[C@H](C)NC(=O)CNC(=O)[C@H](Cc1ccccc1)NC(=O)[C@H](CC(N)=O)NC(=O)[C@@H]1CCCN1C(=O)[C@H](CO)NC(=O)[C@H](CO)NC(=O)[C@H](Cc1c[nH]cn1)NC(=O)[C@H](CCCNC(=N)N)NC(=O)[C@H](CC(C)C)NC(=O)[C@H](Cc1ccccc1)NC(=O)[C@H](CC(N)=O)NC(=O)[C@H](C)NC(=O)[C@H](CC(C)C)NC(=O)[C@H](CCCNC(=N)N)NC(=O)[C@H](CCC(N)=O)NC(=O)[C@@H](NC(=O)[C@H](C)NC(=O)[C@@H]1CSSC[C@H](NC(=O)[C@H](CCCNC(=N)N)NC(=O)CNC(=O)CC[C@H](NC(=O)CCCCCCCCCCCCCCCCCCC(=O)O)C(=O)O)C(=O)N[C@@H](CC(N)=O)C(=O)N[C@@H]([C@@H](C)O)C(=O)N[C@@H](C)C(=O)N[C@@H]([C@@H](C)O)C(=O)N1)[C@@H](C)O)C(=O)N1CCC[C@H]1C(=O)N[C@@H](CO)C(=O)N[C@@H](CO)C(=O)N[C@H](C(=O)N[C@@H](CC(N)=O)C(=O)N[C@H](C(=O)NCC(=O)N[C@@H](CO)C(=O)N[C@@H](CC(N)=O)C(=O)N[C@H](C(=O)N[C@@H](Cc1ccc(O)cc1)C(N)=O)[C@@H](C)O)C(C)C)[C@@H](C)O [Example 46] ({C20 diacid-γGlu}-GRCNTATCATQRLANFLRHSSPNFGAIPSSTNVGSNTY-NH2; disulfide 3-8 (inferred)) |
| 22.5 | 22.5 | 22.5 | 51.4 nM | 1.08 nM | 47.7 | 47.7 | 47.7 | ≥ 200 µM | ≥ 200 µM | ≥ 200 µM | ≥ 200 µM | ≥ 200 µM | ≥ 200 µM | ≥ 200 µM | ≥ 200 µM |  | CC[C@H](C)[C@H](NC(=O)[C@H](C)NC(=O)CNC(=O)[C@H](Cc1ccccc1)NC(=O)[C@H](CC(N)=O)NC(=O)[C@@H]1CCCN1C(=O)[C@H](CO)NC(=O)[C@H](CO)NC(=O)[C@H](Cc1c[nH]cn1)NC(=O)[C@H](CCCNC(=N)N)NC(=O)[C@H](CC(C)C)NC(=O)[C@H](Cc1ccccc1)NC(=O)[C@H](CC(N)=O)NC(=O)[C@H](C)NC(=O)[C@H](CC(C)C)NC(=O)[C@H](CCCNC(=N)N)NC(=O)[C@H](CCC(N)=O)NC(=O)[C@@H](NC(=O)[C@H](C)NC(=O)[C@@H]1CSSC[C@H](NC(=O)[C@@H](N)CCCCNC(=O)COCCOCCNC(=O)CC[C@H](NC(=O)CCCCCCCCCCCCCCCCCCC(=O)O)C(=O)O)C(=O)N[C@@H](CC(N)=O)C(=O)N[C@@H]([C@@H](C)O)C(=O)N[C@@H](C)C(=O)N[C@@H]([C@@H](C)O)C(=O)N1)[C@@H](C)O)C(=O)N1CCC[C@H]1C(=O)N[C@@H](CO)C(=O)N[C@@H](CO)C(=O)N[C@H](C(=O)N1CCC[C@H]1C(=O)N[C@H](C(=O)NCC(=O)N[C@@H](CO)C(=O)N[C@@H](CC(N)=O)C(=O)N[C@H](C(=O)N[C@@H](Cc1ccc(O)cc1)C(N)=O)[C@@H](C)O)C(C)C)[C@@H](C)O [Example 49] |
|  |  | 5.0 | 18.8 nM | 0.659 nM | 28.5 | 28.5 |  | ≥ 200 µM | ≥ 200 µM | ≥ 200 µM | ≥ 200 µM | ≥ 200 µM | ≥ 200 µM | ≥ 200 µM | ≥ 200 µM | 0.389 nM | CC[C@H](C)[C@H](NC(=O)[C@H](C)NC(=O)CNC(=O)[C@H](Cc1ccccc1)NC(=O)[C@H](CC(N)=O)NC(=O)[C@H](CCCCNC(=O)CC[C@H](NC(=O)CC[C@H](NC(=O)CCCCCCCCCCCCCCCCCCC(=O)O)C(=O)O)C(=O)O)NC(=O)[C@H](CO)NC(=O)[C@H](CO)NC(=O)[C@H](Cc1c[nH]cn1)NC(=O)[C@H](CCCNC(=N)N)NC(=O)[C@H](CC(C)C)NC(=O)[C@H](Cc1ccccc1)NC(=O)[C@H](CC(=O)O)NC(=O)[C@H](C)NC(=O)[C@H](CC(C)C)NC(=O)[C@H](CCCNC(=N)N)NC(=O)[C@H](CCC(N)=O)NC(=O)[C@@H](NC(=O)[C@H](C)NC(=O)[C@@H]1CSSC[C@H](NC(=O)[C@@H](N)CCCCN)C(=O)N[C@@H](CC(N)=O)C(=O)N[C@@H]([C@@H](C)O)C(=O)N[C@@H](C)C(=O)N[C@@H]([C@@H](C)O)C(=O)N1)[C@@H](C)O)C(=O)N1CCC[C@H]1C(=O)N[C@@H](CO)C(=O)N[C@@H](CO)C(=O)N[C@H](C(=O)N[C@@H](CC(N)=O)C(=O)N[C@H](C(=O)NCC(=O)N[C@@H](CO)C(=O)N[C@@H](CC(=O)O)C(=O)N[C@H](C(=O)N[C@@H](Cc1ccc(O)cc1)C(N)=O)[C@@H](C)O)C(C)C)[C@@H](C)O [Example 59] (H-KCNTATCATQRLADFLRHSSK([γGlu-γGlu-C20 diacid])NFGAIPSSTNVGSDTY-NH2; disulfide 2-7; N-terminus assumed) |
